Experimental data from the NIST ThermoML archive (doi:10.1016/j.fluid.2004.10.022).

Assays:
[1] = Liquid; for mass density: 101.33 kPa
[2] = refractive index (Na D-line) (dimensionless); conditions: 298.15 K; 101.33 kPa; Liquid; Standard Abbe refractometry

CC(=O)OC(C)(C)C [1,1-dimethylethyl ethanoate]
[1]
Conditions | mass density [kg/m3] | vapor or sublimation pressure [kPa]
298.15 K | 860.53 | –
307.53 K | – | 8.99
311.79 K | – | 10.99
315.64 K | – | 13.09
319.82 K | – | 15.73
324.28 K | – | 19.04
325.46 K | – | 20
328.94 K | – | 23.09
332.36 K | – | 26.48
336.12 K | – | 30.67
339.58 K | – | 35.02
342.46 K | – | 39.04
345.75 K | – | 43.98
348.84 K | – | 49.09
352.07 K | – | 54.94
354.95 K | – | 60.02
357.17 K | – | 65.33
359.63 K | – | 70.88
361.83 K | – | 76.15
363.85 K | – | 81.26
366 K | – | 87.01
367.99 K | – | 92.58
369.46 K | – | 96.91
370.68 K | – | 100.64
370.86 K | – | 100
372.26 K | – | 105.59

Conditions | refractive index
[2] | 1.384

CC(C)CO [2-methyl-1-propanol]
[1]
Conditions | mass density [kg/m3] | vapor or sublimation pressure [kPa]
298.15 K | 797.83 | –
342.52 K | – | 20
381.09 K | – | 100

Conditions | refractive index
[2] | 1.3937

CC(C)(C)O [2-methylpropan-2-ol]
[1]
Conditions | mass density [kg/m3] | vapor or sublimation pressure [kPa]
300.93 K | – | 6.93
303.15 K | 775.4 | –
304.86 K | – | 8.76
309.12 K | – | 11.16
313.25 K | – | 14.03
315.48 K | – | 15.81
320.17 K | – | 20
320.75 K | – | 20.63
325.05 K | – | 25.76
328.35 K | – | 30.37
331.45 K | – | 35.33
334.15 K | – | 40.21
336.65 K | – | 45.17
338.85 K | – | 49.98
341.05 K | – | 55.12
342.95 K | – | 59.92
344.85 K | – | 65.12
346.45 K | – | 69.66
348.15 K | – | 74.84
349.75 K | – | 79.98
351.25 K | – | 85.09
352.65 K | – | 90.08
353.95 K | – | 94.97
355.15 K | – | 99.63
355.59 K | – | 100
355.65 K | – | 101.33
356.55 K | – | 105.13
357.65 K | – | 109.82
358.85 K | – | 115.07
359.83 K | – | 119.91

Conditions | refractive index
[2] | 1.3851

CC(=O)OCC(C)C [2-methylpropyl ethanoate]
[1]
Conditions | mass density [kg/m3] | vapor or sublimation pressure [kPa]
293.15 K | 866.12 | –
307.43 K | – | 3.99
315.56 K | – | 5.99
322.93 K | – | 8.48
328.64 K | – | 10.98
335.75 K | – | 14.98
341.55 K | – | 18.96
342.95 K | – | 20
346.88 K | – | 23.44
351.45 K | – | 27.95
355.75 K | – | 32.86
359.66 K | – | 37.89
363.22 K | – | 42.93
366.39 K | – | 47.84
368.76 K | – | 51.85
371.61 K | – | 57.06
374.55 K | – | 62.82
376.93 K | – | 67.79
379.15 K | – | 72.78
381.03 K | – | 77.2
383.63 K | – | 83.72
385.84 K | – | 89.68
387.69 K | – | 94.78
389.16 K | – | 98.95
389.9 K | – | 100
391.39 K | – | 105.57

Conditions | refractive index
[2] | 1.3876
